# Laboratory results: patent US20160295854A1, “COMPOSITION AND METHOD FOR EX-VIVO IMMUNOMODULATION AND/OR PRESERVATION OF ORGANS, METHODS AND USE” (UNIAO BRASILEIRA DE EDUCACAO E ASSISTENCIA , MANTENEDORA DA …, priority 2014, published 2016)
# What was measured:
# [1] = test system: cutaneous allograft (B6 donor skin in BALB/c recipients); test: Cutaneous allograft model, graft immersion followed by topic application; type: in vivo, mice (Mus musculus)
# From the text: That is, animals that received grafts treated with Hsp70 receive the local application of a Hsp70 solution and the same for OVA.
# After this, the grafts were sutured in BALB/c (I-A^d) animals' back. […] The animals were daily monitored. (A) Schematic representation of the treatment strategy used in the experiment. (B) Photographic record of the clinical progression of the acute rejection in groups Hsp70 and OVA. […] Data achieved from previous experiments.
# [2] = test system: CD4+ and CD8+ T cells in recipient DLN; test: Recipient responses in DLN (cell count, Ki67 proliferation, Tregs); type: in vivo, mice (Mus musculus)
# Protocol: Cells of the donor mice (I-A^b+ or GFP+) were detected in the axillary lymph nodes of the recipients, 24 h or 96 h after the transplantation by flow cytometry. The transplanted mice were sacrificed, the axillary lymph nodes were removed and macerated in a nylon screen with a mean that had D Collagenase (Roche®). We achieved a cell suspension that had the cells in contact with Tripan blue and analyzed by flow cytometry.
# For analyzing the recipients T cells, the cells were marked for CD4 (GK1.5), CD8a (53-6.7), Foxp3 (MF23), Ki67 (B56) achieved from BD Biosciences. The specific transcription factor marking of Tregs Foxp3 was performed using the kit Mouse Foxp3 Buffer Set (BD Biosciences), according to the manufacturer instructions. The levels of phosphorylated ERK and STAT3 were determined using antibodies for p-ERK1/2 and p-STAT3 (BD Biosciences) in BMDCs previously fixed and permeablized. The cells were subsequently analyzed in the flow cytometer FACSCanto II (BD Biosciences) with the BD FACSDiva (BD Biosciences) program. The data achieved were analyzed with the Flowjo program (version 7.6.5, Tree Star).
# When analyzed the median responses in the Recipients' DLNs, it was noted, for inventors surprise, which animals that received grafts treated with OVA presented organs in a greater size when compared with animals that received grafts treated with Hsp70.
# For analyzing this hypothesis, the proliferation of these cells was analyzed by marking with Ki67 in the transplanted animals DLN. Ki67 is a molecule having a role in the cellular cycle and is expressed by any organism cell that is proliferating. […] An increase in the number of regulating T cells (Tregs) may reduce the alloreactive T cells proliferation in the recipient DLN, delaying the rejection to grafts. […] These findings are in accordance with the observation that immature DCs administration in human leads to an inhibition of the CD8+ T cells effector functions.
# FIG. 7. […]
# [3] = test system: MHC II; test: MHC II (I-A^b) expression in DCs isolated from skin draining lymph nodes; type: cell-based, mice (Mus musculus)
# Protocol: CD11c+ cells were purified from lymph nodes that drain mice skin antigens C57Bl/6 WT or TLR2 KO, and 129Sv/Ev WT or IL-10 KO. The animals were sacrificed and the axial, brachial and inguinal lymph nodes were removed. These organs were macerated in a nylon screen with a mean that has D Collagenase (Roche). The cell suspension achieved was marked with the magnetic beads conjugated with an anti-CD11c antibody (N418) (Miltenyi Biotech) for 15 min. After being washed, the CD11c+ cells were purified by positive selecting using the MACS MS (Miltenyi Biotech) separation columns, according to the manufacturer instructions. The cells purity purified was controlled by flow cytometry, indicating a purity of 90% CD11c+ cells in the positive fraction. Therefore, the cells were grown in 96-well plates in serum free mean AIM-V® (Gibco).
# The supernatants were collected and used for analyzing cytokine. The cells were further treated with 20 ng/ml of Rapamycin (Cell Signaling), 1 μg/ml of Cyclosporine A (Roche) or 20 ng/ml of IL-10 recombinant murine (R&D System) for 24 h and the total RNA was removed.
# For analyzing the migration and activation of the DCs subtypes, the cells were marked for I-A^b (AF6-120.1), CD11c (HL3), CD11b (M1/70), CD45R/B220 (RA3-6B2), CD103 (M290), CCR7 (CD197-4B12), CD80 (16-10A1), CD86 (GL1) antibodies achieved from BD Biosciences; and Langerin (CD207—eBioRMUL.2) from eBioscience.
# After this period, the expression of I-A^b in the DCs was analyzed by flow cytometry.
# (A) Analysis strategy for DCs subtypes present in the mice recipients DNL. […] After this period, the expression of I-A^b was analyzed in the DCs CD103+. Graphs expressed on average ±SEM. **, p<0.01; ***, […]. n=3 mice per group. Representative results of 3 independent experiments.
# After that, IL-10 mRNA levels were analyzed by Real-time PCR. The β-actin was used as a setter. The IL-10 concentration was measured in the cultures supernatant by flow cytometry. […] (C) As in A, however the MARCH-I mRNA levels were analyzed by Real-time PCR. […] DCs IL-10 KO were also treated with Recombinant IL-10. All treatments were performed for 24 h and MARCH-I mRNA levels were analyzed by Real-time PCR. […] After this period, grafts were sutured in the BALB/c animals' back and the acceptance was daily monitored. Graphs expressed on average ±SEM. *, p<0.05; **, p<0.01; ***, […]. n=3-5 mice per group. Representative results of 3 independent experiments.
# The β-actin was used as setter. […] (C) Representative graphs and percentages of the CD11c+ I-Ab^hi, CD11c+I-Ab^int and CD11c+I-Ab^low cells of DCs isolated from LNs draining skin antigens of WT animals or TLR2 KO. […] After this period, the treated grafts were sutured in the BALB/c animals' back and the acceptance was daily monitored. […]
substance,measurement,setting,value
"Hsp70: recombinant Mycobacterium tuberculosis Hsp70 (DnaK) produced in Escherichia coli BL21, LPS removed","graft survival, immersion plus topic application until day 7 (FIG. 18)",[1]; compared to animals treated with OVA,much bigger
same,Survival median,[1]; group '- 1 day',17.0 days
same,total of cells of the Recipients' DLNs (FIG. 7 A),"[2]; days 1, 4, 7 and 10 after transplantation, vs OVA",lower absolute number of cells
same,"CD4+ and CD8+ T cells proliferation (Ki67) in recipient DLN (FIG. 7 B, C)",[2]; graft treated by immersion,reduction marked
same,Tregs in the recipient DLN (FIG. 7 D),[2]; graft treated by immersion,not detected a significant increase
same,MHC II expression in DCs isolated from skin draining lymph nodes (FIG. 3),"[3]; 24 h, vs OVA",increase in the number of DCs expressing intermediate or low levels of MHC II
same,MHC II expression inhibition in DCs TLR2 KO (FIG. 12 C),[3]; DCs isolated from LNs of WT or TLR2 KO,dependent on TLR2
same,reduction of MHC II expression in IL-10 KO DCs (FIG. 11 B),[3]; DCs of knockout animals for IL-10,not possible to note this phenomenon
same,MHC II expression in DCs CD103+ isolated from the lymph nodes (FIG. 9 C),"[3]; in vitro, 30 μg/ml, 24 h",reduce in vitro the MHC II expression
